Assays:
[1] = tested on: Phospho-Rb (Ser807/811) in MCF7 cells; assay: Phospho-Rb expression inhibition in MCF7 cells quantified by in cell Western; type: cell-based, human; conditions: Homo sapiens, MCF7, 24 h, 24 hours, in cell Western, read-out: MCF7 pRb IC50
Procedure, shortened: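 MCF7 cells were seeded at 20,000/well, grown overnight, then treated 24 h at 37 °C with compound dilutions (0.1% DMSO from 1000× stocks). Fixed cells were co-stained for phospho-Rb Ser807/811 and total Rb. Near-infrared dual-channel in-cell Western imaging was the read-out.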

22RV1 cells = assay: Cell growth inhibition of 22RV1 cells (CellTiter-Glo); type: cell-based; conditions: Homo sapiens, 22Rv1, 120 h, 5 days, CellTiter-Glo, read-out: 22RV1 Cell Growh GI50
Procedure, shortened: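 22RV1 cells were plated in RPMI1640 with FBS (20% in one version, 10% in the other) and dosed next day at various concentrations from DMSO stocks. After 5 days at 37 °C, viability was measured by CellTiter-Glo luminescence.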

For `CC(C)c1c(C(C)(C)O)cnc2c(F)cc(-c3nc(N[C@@H]4C[C@H]5CO[C@H](O5)[C@H]4O)ncc3Cl)cc12` [Compound 250, (1S,3R,4S,5R)-3-((5-chloro-4-(8-fluoro-3-(2-hydroxypropan-2-yl)-4-isopropylquinolin-6-yl)pyrimidin-2-yl)amino)-6,8-dioxabicyclo[3.2.1]octan-4-ol], the IC50 [1] was no more than 40 nM and the GI50 (22RV1 cells) was no more than 120 nM.

`CC(C)(O)c1ccnc2c(F)cc(-c3nc(N[C@@H]4C[C@H]5CO[C@H](O5)[C@H]4O)ncc3Cl)cc12` [Compound 251, (1S,3R,4S,5R)-3-((5-chloro-4-(8-fluoro-4-(2-hydroxypropan-2-yl)quinolin-6-yl)pyrimidin-2-yl)amino)-6,8-dioxabicyclo[3.2.1]octan-4-ol] showed an IC50 [1] of 40 to 150 nM and a GI50 (22RV1 cells) of no more than 120 nM.

With `CC(C)(O)c1cnc2c(F)cc(-c3nc(N[C@@H]4C[C@H]5CO[C@H](O5)[C@H]4O)ncc3Cl)cc2c1` [Compound 253, (1S,3R,4S,5R)-3-((5-chloro-4-(8-fluoro-3-(2-hydroxypropan-2-yl)quinolin-6-yl)pyrimidin-2-yl)amino)-6,8-dioxabicyclo[3.2.1]octan-4-ol] the IC50 [1] was 150 to 1000 nM and the GI50 (22RV1 cells) was 120 to 450 nM.

For `CC(C)(O)c1cnc2c(F)cc(-c3nc(N[C@@H]4C[C@H]5CO[C@H](O5)[C@H]4O)ncc3F)cc2c1` [Compound 254, (1S,3R,4S,5R)-3-((5-fluoro-4-(8-fluoro-3-(2-hydroxypropan-2-yl)quinolin-6-yl)pyrimidin-2-yl)amino)-6,8-dioxabicyclo[3.2.1]octan-4-ol], the IC50 [1] was 150 to 1000 nM and the GI50 (22RV1 cells) was 120 to 450 nM.

`CC(C)(O)c1cc2cc(-c3nc(N[C@@H]4C[C@H]5CO[C@H](O5)[C@H]4O)ncc3Cl)cc(F)c2nn1` [Compound 258, (1S,3R,4S,5R)-3-((5-chloro-4-(8-fluoro-3-(2-hydroxypropan-2-yl)cinnolin-6-yl)pyrimidin-2-yl)amino)-6,8-dioxabicyclo[3.2.1]octan-4-ol] showed an IC50 [1] greater than 1000 nM and a GI50 (22RV1 cells) greater than 3000 nM.

In the case of `Cc1c(-c2nc(N[C@@H]3C[C@H]4CO[C@H](O4)[C@H]3O)ncc2Cl)sc2cc(C(C)(C)O)cnc12` [Compound 260, (1S,3R,4S,5R)-3-((5-chloro-4-(6-(2-hydroxypropan-2-yl)-3-methylthieno[3,2-b]pyridin-2-yl)pyrimidin-2-yl)amino)-6,8-dioxabicyclo[3.2.1]octan-4-ol], the IC50 [1] is reported as 40 to 150 nM and the GI50 (22RV1 cells) is reported as 120 to 450 nM.

`O[C@@H]1[C@@H]2OC[C@H](C[C@H]1Nc1ncc(Cl)c(-c3cc(F)c4ncc(CN5CCOCC5)cc4c3)n1)O2` [Compound 261, (1S,3R,4S,5R)-3-((5-chloro-4-(8-fluoro-3-(morpholinomethyl)quinolin-6-yl)pyrimidin-2-yl)amino)-6,8-dioxabicyclo[3.2.1]octan-4-ol] showed an IC50 [1] of 150 to 1000 nM and a GI50 (22RV1 cells) of 450 to 3000 nM.

`C[C@H]1COC[C@H](C)N1Cc1cnc2c(F)cc(-c3nc(N[C@@H]4C[C@H]5CO[C@H](O5)[C@H]4O)ncc3Cl)cc2c1` [Compound 262, (1S,3R,4S,5R)-3-((5-chloro-4-(3-(((3S,5S)-3,5-dimethylmorpholino)methyl)-8-fluoroquinolin-6-yl)pyrimidin-2-yl)amino)-6,8-dioxabicyclo[3.2.1]octan-4-ol] gave an IC50 [1] of 150 to 1000 nM and a GI50 (22RV1 cells) of 450 to 3000 nM.

Compound `CC(C)[C@@H]1COC(=O)N1c1nc2c(F)cc(-c3nc(N[C@@H]4C[C@H]5CO[C@H](O5)[C@H]4O)ncc3Cl)cc2n1C(C)C` [Compound 263, (R)-3-(6-(5-chloro-2-(((1S,3R,4S,5R)-4-hydroxy-6,8-dioxabicyclo[3.2.1]octan-3-yl)amino)pyrimidin-4-yl)-4-fluoro-1-isopropyl-1H-benzo[d]imidazol-2-yl)-4-isopropyloxazolidin-2-one] has an IC50 [1] of 150 to 1000 nM and a GI50 (22RV1 cells) greater than 3000 nM.

`CC(C)(O)c1cnc2c(F)cc(-c3nc(N[C@@H]4C[C@H]5CO[C@H](O5)[C@H]4O)ncc3Cl)cc2n1` [Compound 264, (1S,3R,4S,5R)-3-((5-chloro-4-(8-fluoro-3-(2-hydroxypropan-2-yl)quinoxalin-6-yl)pyrimidin-2-yl)amino)-6,8-dioxabicyclo[3.2.1]octan-4-ol] was tested, and the IC50 [1] was 150 to 1000 nM and the GI50 (22RV1 cells) was 450 to 3000 nM.

For `Cc1c(-c2nc(N[C@@H]3C[C@H]4CO[C@H](O4)[C@H]3O)ncc2F)sc2c(C(C)C)cnnc12` [Compound 266, (1S,3R,4S,5R)-3-((5-fluoro-4-(4-isopropyl-7-methylthieno[3,2-c]pyridazin-6-yl)pyrimidin-2-yl)amino)-6,8-dioxabicyclo[3.2.1]octan-4-ol], the IC50 [1] was no more than 40 nM and the GI50 (22RV1 cells) was no more than 120 nM.

With `CC(C)n1c([C@H]2CCOC2)nc2c(F)cc(-c3nc(N[C@@H]4C[C@H]5CO[C@H](O5)[C@H]4O)ncc3Cl)cc21` [Compound 267, (1S,3R,4S,5R)-3-((5-chloro-4-(4-fluoro-1-isopropyl-2-((R)-tetrahydrofuran-3-yl)-1H-benzo[d]imidazol-6-yl)pyrimidin-2-yl)amino)-6,8-dioxabicyclo[3.2.1]octan-4-ol] the IC50 [1] was 40 to 150 nM and the GI50 (22RV1 cells) was 120 to 450 nM.

`Cc1c(CN2C[C@@H](C)OC2=O)n(C(C)C)c2cc(-c3nc(N[C@@H]4C[C@H]5CO[C@H](O5)[C@H]4O)ncc3F)ccc2c1=O` [Compound 271, (R)-3-((7-(5-fluoro-2-(((1S,3R,4S,5R)-4-hydroxy-6,8-dioxabicyclo[3.2.1]octan-3-yl)amino)pyrimidin-4-yl)-1-isopropyl-3-methyl-4-oxo-1,4-dihydroquinolin-2-yl)methyl)-5-methyloxazolidin-2-one] was tested, and the IC50 [1] was 150 to 1000 nM and the GI50 (22RV1 cells) was greater than 3000 nM.

In the case of `CC(C)n1c(N2CCOC2=O)nc2c(F)cc(-c3nc(N[C@@H]4C[C@H]5CO[C@H](O5)[C@H]4O)ncc3Cl)cc21` [Compound 272, 3-(6-(5-chloro-2-(((1S,3R,4S,5R)-4-hydroxy-6,8-dioxabicyclo[3.2.1]octan-3-yl)amino)pyrimidin-4-yl)-4-fluoro-1-isopropyl-1H-benzo[d]imidazol-2-yl)oxazolidin-2-one], the IC50 [1] is reported as 40 to 150 nM and the GI50 (22RV1 cells) is reported as 450 to 3000 nM.

Compound `Cc1c(-c2nc(N[C@@H]3C[C@H]4CO[C@H](O4)[C@H]3O)ncc2F)sc2c(C)c(C(C)(C)O)cnc12` [Compound 278, (1S,3R,4S,5R)-3-((5-fluoro-4-(6-(2-hydroxypropan-2-yl)-3,7-dimethylthieno[3,2-b]pyridin-2-yl)pyrimidin-2-yl)amino)-6,8-dioxabicyclo[3.2.1]octan-4-ol] has an IC50 [1] of no more than 40 nM and a GI50 (22RV1 cells) of no more than 120 nM.

Work on `Cc1c(C(C)(C)O)nnc2c(F)cc(-c3nc(N[C@@H]4C[C@H]5CO[C@H](O5)[C@H]4O)ncc3Cl)cc12` [Compound 279, (1S,3R,4S,5R)-3-((5-chloro-4-(8-fluoro-3-(2-hydroxypropan-2-yl)-4-methylcinnolin-6-yl)pyrimidin-2-yl)amino)-6,8-dioxabicyclo[3.2.1]octan-4-ol] yielded an IC50 [1] of 150 to 1000 nM and a GI50 (22RV1 cells) of no more than 120 nM.

With `Cc1c(C(C)(C)O)nnc2c(F)cc(-c3nc(N[C@@H]4C[C@H]5CO[C@H](O5)[C@H]4O)ncc3F)cc12` [Compound 280, (1S,3R,4S,5R)-3-((5-fluoro-4-(8-fluoro-3-(2-hydroxypropan-2-yl)-4-methylcinnolin-6-yl)pyrimidin-2-yl)amino)-6,8-dioxabicyclo[3.2.1]octan-4-ol] the IC50 [1] was 150 to 1000 nM and the GI50 (22RV1 cells) was no more than 120 nM.

With `Cc1c(C(C)(C)O)cnc2c(Cl)cc(-c3nc(N[C@@H]4C[C@H]5CO[C@H](O5)[C@H]4O)ncc3F)cc12` [Compound 283, (1S,3R,4S,5R)-3-((4-(8-chloro-3-(2-hydroxypropan-2-yl)-4-methylquinolin-6-yl)-5-fluoropyrimidin-2-yl)amino)-6,8-dioxabicyclo[3.2.1]octan-4-ol] the IC50 [1] was no more than 40 nM and the GI50 (22RV1 cells) was no more than 120 nM.
